In patent US9725449B2, “Tricyclic compounds as anticancer agents” (BRISTOL-MYERS SQUIBB COMPANY, priority 2015, dated 2017):

Molecular target: BRD4 (Homo sapiens, UniProt O60885)
Test: Time resolved fluorescence resonance energy transfer (TR-FRET) binding assay, bromodomain BRD4
Conditions: one of the FRET assays described; read-out: FRET BRD4 IC50

| Molecule | IC50 [µM] |
| --- | --- |
| Cc1nnn(C)c1-c1cnc2c3ccc(N4CCN(C5CCN(C)CC5)CC4)nc3n([C@H](c3ccccc3F)C3CCOCC3)c2c1 [Example 270, 5-(Dimethyl-1H-1,2,3-triazol-5-yl)-8-[(S)-(2-fluorophenyl)(oxan-4-yl)methyl]-11-[4-(1-methylpiperidin-4-yl)piperazin-1-yl]-3,8,10-triazatricyclo[7.4.0.0^2,^7]trideca-1(13),2(7),3,5,9,11-hexaene] | < 0.001 |
| [2H]C([2H])([2H])c1nnn(C)c1-c1cnc2c3ccc(-c4c(C([2H])([2H])[2H])nnn4C)nc3n(C(c3ccccc3)C3CCC(F)(F)CC3)c2c1 (centres unmarked) [Example 261, 8-[(4,4-Difluorocyclohexyl)(phenyl)methyl]-5,11-bis[4-(^2H3)methyl-1-methyl-H-1,2,3-triazol-5-yl]-3,8,10-triazatricyclo[7.4.0.0^2,^7]trideca-1(13),2(7),3,5,9,11-hexaene] | < 0.01 |
| [2H]C([2H])([2H])c1nnn(C)c1-c1cnc2c3c(OCC)ncc(S(C)(=O)=O)c3n([C@H](c3ccc(F)cc3)C3CCOCC3)c2c1 [Example 77, 13-Ethoxy-8-[(S)-(4-fluorophenyl)(oxan-4-yl)methyl]-10-methanesulfonyl-5-[4-(^2H3)methyl-1-methyl-1H-1,2,3-triazol-5-yl]-3,8,12-triazatricyclo[7.4.0.0^2,^7]trideca-1(13),2(7),3,5,9,11-hexaene] | < 0.001 |
| COc1ncc(S(C)(=O)=O)c2c1c1ncc(-c3c(C)noc3C)cc1n2[C@H](c1ccccc1)C1CCOCC1 [Example 45, 5-(Dimethyl-1,2-oxazol-4-yl)-10-methanesulfonyl-13-methoxy-8-[(S)-oxan-4-yl(phenyl)methyl]-3,8,12-triazatricyclo[7.4.0.0^2,^7]trideca-1(13),2(7),3,5,9,11-hexaene] | < 0.001 |
| [2H]C([2H])([2H])c1nnn(C)c1-c1cnc2c3c(OC)ncc(S(C)(=O)=O)c3n(C(c3ncccc3F)C3CCOCC3)c2c1 (centres unmarked) [Example 65, 8-[(3-Fluoropyridin-2-yl)(oxan-4-yl)methyl]-10-methanesulfonyl-13-methoxy-5-[4-(^2H3)methyl-1-methyl-1H-1,2,3-triazol-5-yl]-3,8,12-triazatricyclo[7.4.0.0^2,^7]trideca-1(13),2(7),3,5,9,11-hexaene] | < 1.5 |
| 2-{5-[4-(^2H3)Methyl-1-methyl-1H-1,2,3-triazol-5-yl]-8-[1-(pyridin-2-yl)butyl]-3,8,12-triazatricyclo[7.4.0.0^2,^7]trideca-1(13),2(7),3,5,9,11-hexaen-11-yl}propan-2-ol [Example 357] | < 0.01 |
| Cc1nnn(C)c1-c1cnc2c3cnccc3n([C@H](c3ccccc3)C3CCOCC3)c2c1 [Example 35, 5-(Dimethyl-1H-1,2,3-triazol-5-yl)-8-[(S)-oxan-4-yl(phenyl)methyl]-3,8,12-triazatricyclo[7.4.0.0^2,^7]trideca-1(13),2(7),3,5,9,11-hexaene] | < 0.01 |
| Cc1nnn(C)c1-c1cnc2c3ccc(N4CC(O)C4)nc3n([C@H](c3ccccc3)C3CCOCC3)c2c1 [Example 179, 1-[5-(Dimethyl-1H-1,2,3-triazol-5-yl)-8-[(S)-oxan-4-yl(phenyl)methyl]-3,8,10-triazatricyclo[7.4.0.0^2,^7]trideca-1(9),2(7),3,5,10,12-hexaen-11-yl]azetidin-3-ol] | < 0.001 |
| [2H]C([2H])([2H])c1nnn(C)c1-c1cnc2c3ccc(Cl)nc3n(C(c3ccccc3)C3CCC(F)(F)CC3)c2c1 (centres unmarked) [Example 259, 11-Chloro-8-[(4,4-difluorocyclohexyl)(phenyl)methyl]-5-[4-(^2H3)methyl-1-methyl-1H-1,2,3-triazol-5-yl]-3,8,10-triazatricyclo[7.4.0.0^2,^7]trideca-1(13),2(7),3,5,9,11-hexaene] | < 1.5 |
| [2H]C([2H])([2H])c1nnn(C)c1-c1cnc2c3c(OC)ncc(S(C)(=O)=O)c3n(C(c3c(F)cc(F)cc3F)C3CCOCC3)c2c1 (single isomer, unassigned) [Example 84, 10-Methanesulfonyl-13-methoxy-5-[4-(^2H3)methyl-1-methyl-1H-1,2,3-triazol-5-yl]-8-[oxan-4-yl(2,4,6-trifluorophenyl)methyl]-3,8,12-triazatricyclo[7.4.0.0^2,^7]trideca-1(13),2(7),3,5,9,11-hexaene] | < 1.5 |
| [2H]C([2H])([2H])c1nnn(C)c1-c1cnc2c3c(OC)nc(N(C)CCNC)cc3n([C@H](c3ncccc3F)C3CCOCC3)c2c1 [Example 313, 8-[(S)-(3-Fluoropyridin-2-yl)(oxan-4-yl)methyl]-13-methoxy-N-methyl-5-[4-(^2H3)methyl-1-methyl-1H-1,2,3-triazol-5-yl]-N-[2-(methylamino)ethyl]-3,8,12-triazatricyclo[7.4.0.0^2,^7]trideca-1(9),2(7),3,5,10,12-hexaen-11-amine] | < 1.5 |
| [2H]C([2H])([2H])c1nnn(C)c1-c1cnc2c3ccncc3n([C@H](c3ccccc3)C3CCOCC3)c2c1 [Example 299, 5-[4-(^2H3)Methyl-1-methyl-1H-1,2,3-triazol-5-yl]-8-[(S)-oxan-4-yl(phenyl)methyl]-3,8,11-triazatricyclo[7.4.0.0^2,^7]trideca-1(9),2(7),3,5,10,12-hexaene] | < 0.001 |
| CC(=O)c1cnc2c3ccc(-c4c(C)nnn4C)nc3n([C@H](c3ccccc3)C3CCOCC3)c2c1 [Example 379] | < 0.001 |
| Cc1cnn(C)c1-c1ccc2c3ncc(-c4c(C)nnn4C)cc3n([C@H](c3ccccc3)C3CCOCC3)c2n1 [Example 148, 5-(Dimethyl-1H-1,2,3-triazol-5-yl)-11-(1,4-dimethyl-1H-pyrazol-5-yl)-8-[(S)-oxan-4-yl(phenyl)methyl]-3,8,10-triazatricyclo[7.4.0.0^2,^7]trideca-1(13),2(7),3,5,9,11-hexaene] | < 0.01 |
| Cc1nnn(C)c1-c1cnc2c3ccc(S(=O)(=O)N4CCCC4)nc3n([C@H](c3ccccc3)C3CCOCC3)c2c1 [Example 196, 5-(Dimethyl-1H-1,2,3-triazol-5-yl)-8-[(S)-oxan-4-yl(phenyl)methyl]-11-(pyrrolidine-1-sulfonyl)-3,8,10-triazatricyclo[7.4.0.0^2,^7]trideca-1(9),2(7),3,5,10,12-hexaene] | < 0.01 |
| [2H]C([2H])([2H])c1nnn(C)c1-c1cnc2c3cc(C(C)(C)O)cnc3n([C@H](c3ncccc3F)C3CCOCC3)c2c1 [Example 352, 2-{8-[(S)-(3-Fluoropyridin-2-yl)(oxan-4-yl)methyl]-5-[4-(^2H3)methyl-1-methyl-1H-1,2,3-triazol-5-yl]-3,8,10-triazatricyclo[7.4.0.0^2,^7]trideca-1(13),2(7),3,5,9,11-hexaen-12-yl}propan-2-ol] | < 0.01 |
| [2H]C([2H])([2H])c1nnn(C)c1-c1cc2c(cn1)c1ncc(C(C)(C)O)cc1n2[C@H](c1ccccc1)C1CCOCC1 [Example 364, 2-{11-[4-(^2H3)Methyl-1-methyl-1H-1,2,3-triazol-5-yl]-8-[(S)-(oxan-4-yl)(phenyl)methyl]-3,8,12-triazatricyclo[7.4.0.0^2,^7]trideca-1(9),2,4,6,10,12-hexaen-5-yl}propan-2-ol] | < 0.01 |
| Cc1nnn(C)c1-c1cnc2c3ccc(-c4ccnn4C)nc3n([C@H](c3ccccc3F)C3CCOCC3)c2c1 [Example 229, 5-(Dimethyl-1H-1,2,3-triazol-5-yl)-8-[(S)-(2-fluorophenyl)(oxan-4-yl)methyl]-11-(1-methyl-1H-pyrazol-5-yl)-3,8,10-triazatricyclo[7.4.0.0^2,^7]trideca-1(13),2(7),3,5,9,11-hexaene] | < 0.01 |
| CC(=O)c1cc2c(cn1)c1ncc(-c3c(C)nnn3C)cc1n2[C@H](c1ccc(F)cc1)C1CCOCC1 [Example 337] | < 0.01 |
| [2H]C([2H])([2H])c1nnn(C)c1-c1cnc2c3c(OCC)ncc(S(C)(=O)=O)c3n([C@H](c3ccccc3F)C3CCOCC3)c2c1 [Example 62, 13-Ethoxy-8-[(S)-(2-fluorophenyl)(oxan-4-yl)methyl]-10-methanesulfonyl-5-[4-(^2H3)methyl-1-methyl-1H-1,2,3-triazol-5-yl]-3,8,12-triazatricyclo[7.4.0.0^2,^7]trideca-1(13),2(7),3,5,9,11-hexaene] | < 0.001 |
| [2H]C([2H])([2H])c1nnn(C)c1-c1cnc2c3cnc(Cl)cc3n(C(c3ncccc3F)C3CCOCC3)c2c1 (single isomer, unassigned) [Example 321] | < 0.01 |
| [2H]C([2H])([2H])c1nnn(C)c1-c1cnc2c3ccc(NCCS(C)(=O)=O)nc3n([C@H](c3ccccc3)C3CCOCC3)c2c1 [Example 189, N-(2-Methanesulfonylethyl)-5-[4-(^2H3)methyl-1-methyl-1H-1,2,3-triazol-5-yl]-8-[(S)-oxan-4-yl(phenyl)methyl]-3,8,10-triazatricyclo[7.4.0.0^2,^7]trideca-1(9),2(7),3,5,10,12-hexaen-11-amine] | < 0.001 |
| [2H]C([2H])([2H])c1nnn(C)c1-c1cnc2c3c(OCC(C)C)ncc(S(C)(=O)=O)c3n([C@H](c3ccccc3)C3CCOCC3)c2c1 [Example 108, 10-Methanesulfonyl-5-[4-(^2H3)methyl-1-methyl-1H-1,2,3-triazol-5-yl]-13-(2-methylpropoxy)-8-[(S)-oxan-4-yl(phenyl)methyl]-3,8,12-triazatricyclo[7.4.0.0^2,^7]trideca-1(13),2(7),3,5,9,11-hexaene] | < 0.01 |
| CCCC(c1ccc(F)cn1)n1c2cc(-c3c(C)nnn3C)ncc2c2ncc(C(C)(C)O)cc21 (single isomer, unassigned) [Example 375] | < 1.5 |
| [2H]C([2H])([2H])c1nnn(C)c1-c1cnc2c3c(Cl)ncc(F)c3n([C@H](c3ccccc3)C3CCOCC3)c2c1 [Example 280, 13-Chloro-10-fluoro-5-[4-(^2H3)methyl-1-methyl-1H-1,2,3-triazol-5-yl]-8-[(S)-oxan-4-yl(phenyl)methyl]-3,8,12-triazatricyclo[7.4.0.0^2,^7]trideca-1(13),2(7),3,5,9,11-hexaene] | < 0.01 |
| [2H]C([2H])([2H])c1nnn(C)c1-c1cnc2c3cnc(-c4c(C([2H])([2H])[2H])nnn4C)cc3n([C@H](c3ccccc3)C3CCOCC3)c2c1 [Example 168, 5,11-Bis[4-(^2H3)methyl-1-methyl-1H-1,2,3-triazol-5-yl]-8-[(S)-oxan-4-yl(phenyl)methyl]-3,8,12-triazatricyclo[7.4.0.0^2,^7]trideca-1(9),2(7),3,5,10,12-hexaene] | < 0.001 |
